Reference: ChEMBL document CHEMBL4130462, “Natural isoflavone biochanin A as a template for the design of new and potent 3-phenylquinolone efflux inhibitors against Mycobacterium avium” (Eur J Med Chem, 2017)
Values after ≈ are worked out from the molar mass of the structure shown.

Tests used:
Mycobacterium avium [1] = test: Antimycobacterial activity against Mycobacterium avium isolate MAV3 assessed as reduction in bacterial viability incubated for 3 days by MTT assay; type: organism-based; settings: 72 h
Mycobacterium avium [2] = test: Antimycobacterial activity against Mycobacterium avium isolate MAV4 assessed as reduction in bacterial viability incubated for 3 days by MTT assay; type: organism-based; settings: 72 h
[3] = Cytotoxicity in human monocyte-derived macrophages assessed as reduction in cell viability incubated for 3 days by alamar blue dye based assay; design: species or system Macrophage cell line
[4] = Safety index, ratio of CC50 for test compound to CC50 for thioridazine for cytotoxicity in human monocyte-derived macrophages; type: cell-based, Macrophage cell line
[5] = Safety index, ratio of CC50 for test compound to CC50 for chlorpromazine for cytotoxicity in human monocyte-derived macrophages; type: cell-based, Macrophage cell line
[6] = Safety index, ratio of MTC for test compound to MTC for chlorpromazine for cytotoxicity in human monocyte-derived macrophages; type: cell-based, Macrophage cell line
Mycobacterium avium [7] = settings: in vivo, 72 h
Description: Antimycobacterial activity against Mycobacterium avium 104 mc'2 3 assessed as reduction in bacterial viability incubated for 3 days by MTT assay

Mycobacterium avium [8] = settings: in vivo, 72 h; remark: listed apart in the source
Description: Antimycobacterial activity against Mycobacterium avium 104 mc'2 4 assessed as reduction in bacterial viability incubated for 3 days by MTT assay

Mycobacterium avium [9] = settings: 104
Description: Inhibition of multidrug resistance efflux pump in Mycobacterium avium 104 assessed as potentiation of clarithromycin -induced antibacterial activity by measuring clarithromycin MIC at 1/2 MIC incubated for 3 days by MTT assay

Mycobacterium avium [10] = settings: 104; remark: listed apart in the source
Description: Inhibition of multidrug resistance efflux pump in Mycobacterium avium 104 assessed as potentiation of clarithromycin -induced antibacterial activity by measuring clarithromycin MIC at 1/4 MIC incubated for 3 days by MTT assay

Mycobacterium avium [11] = settings: 104 mc'2 3
Mycobacterium avium [12] = settings: 104 mc'2 4
Mycobacterium avium [13] = settings: isolate MAV1
Mycobacterium avium [14] = settings: isolate MAV1; remark: listed apart in the source
Mycobacterium avium [15] = settings: isolate MAV2
Description: Inhibition of multidrug resistance efflux pump in Mycobacterium avium isolate MAV2 assessed as potentiation of clarithromycin -induced antibacterial activity by measuring clarithromycin MIC at 1/4 MIC incubated for 3 days by MTT assay (Rvb = >1024 ug/ml)

Mycobacterium avium [16] = settings: 104; remark: listed apart in the source
Mycobacterium avium [17] = settings: 104 mc'2 3; remark: listed apart in the source
Mycobacterium avium [18] = settings: 104 mc'2 3; remark: listed apart in the source
Mycobacterium avium [19] = settings: isolate MAV1; remark: listed apart in the source
Mycobacterium avium [20] = settings: isolate MAV2; remark: listed apart in the source
Mycobacterium avium [21] = settings: isolate MAV3
Mycobacterium avium [22] = settings: isolate MAV3; remark: listed apart in the source
Mycobacterium avium [23] = settings: isolate MAV4
Mycobacterium avium [24] = settings: isolate MAV4; remark: listed apart in the source
[25] = tested on: Mycobacterium avium subsp. avium ATCC 25291
[26] = tested on: Mycobacterium avium subsp. avium ATCC 25291; remark: listed apart in the source
Mycobacterium avium [27] = settings: 104; remark: listed apart in the source
Mycobacterium avium [28] = settings: 104 mc'2 3; remark: listed apart in the source
Mycobacterium avium [29] = settings: isolate MAV1; remark: listed apart in the source
Mycobacterium avium [30] = settings: isolate MAV1; remark: listed apart in the source
Mycobacterium avium [31] = settings: isolate MAV2; remark: listed apart in the source
Mycobacterium avium [32] = settings: isolate MAV3; remark: listed apart in the source
Mycobacterium avium [33] = settings: isolate MAV3; remark: listed apart in the source
Mycobacterium avium [34] = settings: isolate MAV4; remark: listed apart in the source
Mycobacterium avium [35] = settings: isolate MAV4; remark: listed apart in the source
[36] = tested on: Mycobacterium avium subsp. avium ATCC 25291; remark: listed apart in the source
Mycobacterium avium [37] = settings: 104; remark: listed apart in the source
Mycobacterium avium [38] = settings: 104; remark: listed apart in the source
Mycobacterium avium [39] = settings: 104 mc'2 3; remark: listed apart in the source
Mycobacterium avium [40] = settings: 104 mc'2 4; remark: listed apart in the source
Mycobacterium avium [41] = settings: 104 mc'2 4; remark: listed apart in the source
Mycobacterium avium [42] = settings: isolate MAV1; remark: listed apart in the source
Description: Inhibition of multidrug resistance efflux pump in Mycobacterium avium isolate MAV1 assessed as potentiation of ciprofloxacin-induced antibacterial activity by measuring ciprofloxacin MIC at 1/2 MIC incubated for 3 days by MTT assay (Rvb = 2 ug/ml)

Mycobacterium avium [43] = settings: isolate MAV1; remark: listed apart in the source
Description: Inhibition of multidrug resistance efflux pump in Mycobacterium avium isolate MAV1 assessed as potentiation of ciprofloxacin-induced antibacterial activity by measuring ciprofloxacin MIC at 1/4 MIC incubated for 3 days by MTT assay

Mycobacterium avium [44] = settings: isolate MAV2; remark: listed apart in the source
Mycobacterium avium [45] = settings: isolate MAV3; remark: listed apart in the source
Mycobacterium avium [46] = settings: isolate MAV4; remark: listed apart in the source
[47] = tested on: Mycobacterium avium subsp. avium ATCC 25291; remark: listed apart in the source
[48] = tested on: Mycobacterium avium subsp. avium ATCC 25291; remark: listed apart in the source
Mycobacterium avium [49] = settings: 104; remark: listed apart in the source
Mycobacterium avium [50] = settings: 104; remark: listed apart in the source
Mycobacterium avium [51] = settings: 104 mc'2 3; remark: listed apart in the source
Mycobacterium avium [52] = settings: 104 mc'2 4; remark: listed apart in the source
Mycobacterium avium [53] = settings: isolate MAV1; remark: listed apart in the source
Description: Inhibition of multidrug resistance efflux pump in Mycobacterium avium isolate MAV1 assessed as potentiation of ofloxacin-induced antibacterial activity by measuring ofloxacin MIC at 1/2 MIC incubated for 3 days by MTT assay (Rvb = 4 ug/ml)

Mycobacterium avium [54] = settings: isolate MAV1; remark: listed apart in the source
Description: Inhibition of multidrug resistance efflux pump in Mycobacterium avium isolate MAV1 assessed as potentiation of ofloxacin-induced antibacterial activity by measuring ofloxacin MIC at 1/4 MIC incubated for 3 days by MTT assay (Rvb = 4 ug/ml)

Mycobacterium avium [55] = settings: isolate MAV2; remark: listed apart in the source
Description: Inhibition of multidrug resistance efflux pump in Mycobacterium avium isolate MAV2 assessed as potentiation of ofloxacin-induced antibacterial activity by measuring ofloxacin MIC at 1/2 MIC incubated for 3 days by MTT assay

Mycobacterium avium [56] = settings: isolate MAV2; remark: listed apart in the source
Description: Inhibition of multidrug resistance efflux pump in Mycobacterium avium isolate MAV2 assessed as potentiation of ofloxacin-induced antibacterial activity by measuring ofloxacin MIC at 1/4 MIC incubated for 3 days by MTT assay

Mycobacterium avium [57] = settings: isolate MAV4; remark: listed apart in the source
Mycobacterium avium [58] = settings: 104; remark: listed apart in the source
Mycobacterium avium [59] = settings: 104 mc'2 4; remark: listed apart in the source
Mycobacterium avium [60] = settings: 104 mc'2 4; remark: listed apart in the source
Mycobacterium avium [61] = settings: isolate MAV1; remark: listed apart in the source
Mycobacterium avium [62] = settings: isolate MAV1; remark: listed apart in the source
Mycobacterium avium [63] = settings: isolate MAV2; remark: listed apart in the source
Mycobacterium avium [64] = settings: isolate MAV3; remark: listed apart in the source
Mycobacterium avium [65] = settings: isolate MAV4; remark: listed apart in the source
Mycobacterium avium [66] = settings: isolate MAV4; remark: listed apart in the source
Description: Inhibition of multidrug resistance efflux pump in Mycobacterium avium isolate MAV4 assessed as potentiation of ethidium bromide-induced antibacterial activity by measuring ethidium bromide MIC at 1/4 MIC incubated for 3 days by MTT assay

[67] = tested on: Mycobacterium avium subsp. avium ATCC 25291; remark: listed apart in the source
Description: Inhibition of multidrug resistance efflux pump in Mycobacterium avium ATCC 25291 assessed as potentiation of ethidium bromide-induced antibacterial activity by measuring ethidium bromide MIC at 1/2 MIC incubated for 3 days by MTT assay (Rvb = 50 ug/ml)

[68] = tested on: Mycobacterium avium subsp. avium ATCC 25291; remark: listed apart in the source
Description: Inhibition of multidrug resistance efflux pump in Mycobacterium avium ATCC 25291 assessed as potentiation of ethidium bromide-induced antibacterial activity by measuring ethidium bromide MIC at 1/4 MIC incubated for 3 days by MTT assay

Work on `CCCOc1ccc(-c2cn(CCN3CCCCCC3)c3ccccc3c2=O)cc1` yielded an MIC (Mycobacterium avium [1]) of 128 µg/mL (≈ 316 µM), an MIC (Mycobacterium avium [2]) of 256 µg/mL (≈ 633 µM) and a CC50 at 72 h ([3]; human monocyte-derived macrophages) of 50 µM. The MTC ([3]; macrophage cell line, 72 h) was 20 µM, the selectivity ratio [4] was 4 to 6 and the selectivity ratio [5] was 2 to 4. The selectivity ratio [6] was 2 to 4, the MIC (Mycobacterium avium [7]) was 256 µg/mL (≈ 633 µM) and the MIC (Mycobacterium avium [8]) was 256 µg/mL (≈ 633 µM). The MIC (Mycobacterium avium [9]) was less than 0.125 µg/mL, the MIC (Mycobacterium avium [10]) was 1 µg/mL (≈ 2.47 µM) and the MIC (Mycobacterium avium [11]) was 32 µg/mL (≈ 79.1 µM). The MIC (Mycobacterium avium [12]) was 32 µg/mL (≈ 79.1 µM), the MIC (Mycobacterium avium [13]) was less than 0.125 µg/mL and the MIC (Mycobacterium avium [14]) was less than 0.125 µg/mL. For the same compound, the MIC (Mycobacterium avium [15]) was 256 µg/mL (≈ 633 µM), the MIC (Mycobacterium avium [16]) was less than 4 µg/mL and the MIC (Mycobacterium avium [17]) was less than 4 µg/mL. It also gave an MIC (Mycobacterium avium [18]) of 128 µg/mL (≈ 316 µM), an MIC (Mycobacterium avium [19]) of less than 4 µg/mL and an MIC (Mycobacterium avium [20]) of 512 µg/mL (≈ 1270 µM). The MIC (Mycobacterium avium [21]) was less than 4 µg/mL, the MIC (Mycobacterium avium [22]) was 32 µg/mL (≈ 79.1 µM) and the MIC (Mycobacterium avium [23]) was less than 4 µg/mL. It also gave an MIC (Mycobacterium avium [24]) of 8 µg/mL (≈ 19.8 µM), an MIC [25] of less than 1 µg/mL and an MIC [26] of 16 µg/mL (≈ 39.5 µM). The MIC (Mycobacterium avium [27]) was less than 4 µg/mL, the MIC (Mycobacterium avium [28]) was less than 64 µg/mL and the MIC (Mycobacterium avium [29]) was less than 4 µg/mL. The MIC (Mycobacterium avium [30]) was less than 4 µg/mL, the MIC (Mycobacterium avium [31]) was less than 4 µg/mL and the MIC (Mycobacterium avium [32]) was 4 µg/mL (≈ 9.89 µM). The MIC (Mycobacterium avium [33]) was 32 µg/mL (≈ 79.1 µM), the MIC (Mycobacterium avium [34]) was less than 2 µg/mL and the MIC (Mycobacterium avium [35]) was 16 µg/mL (≈ 39.5 µM). It also gave an MIC [36] of less than 0.5 µg/mL, an MIC (Mycobacterium avium [37]) of less than 4 µg/mL and an MIC (Mycobacterium avium [38]) of 1 µg/mL (≈ 2.47 µM). The MIC (Mycobacterium avium [39]) was less than 0.125 µg/mL, the MIC (Mycobacterium avium [40]) was less than 0.125 µg/mL and the MIC (Mycobacterium avium [41]) was 1 µg/mL (≈ 2.47 µM). For the same compound, the MIC (Mycobacterium avium [42]) was less than 0.031 µg/mL, the MIC (Mycobacterium avium [43]) was 0.5 µg/mL (≈ 1.24 µM) and the MIC (Mycobacterium avium [44]) was 2 µg/mL (≈ 4.94 µM). The MIC (Mycobacterium avium [45]) was 0.5 µg/mL (≈ 1.24 µM), the MIC (Mycobacterium avium [46]) was less than 0.25 µg/mL and the MIC [47] was less than 0.25 µg/mL. For the same compound, the MIC [48] was 8 µg/mL (≈ 19.8 µM), the MIC (Mycobacterium avium [49]) was 4 µg/mL (≈ 9.89 µM) and the MIC (Mycobacterium avium [50]) was 4 µg/mL (≈ 9.89 µM). The MIC (Mycobacterium avium [51]) was 4 µg/mL (≈ 9.89 µM), the MIC (Mycobacterium avium [52]) was 2 µg/mL (≈ 4.94 µM) and the MIC (Mycobacterium avium [53]) was less than 0.0625 µg/mL. It also gave an MIC (Mycobacterium avium [54]) of 2 µg/mL (≈ 4.94 µM), an MIC (Mycobacterium avium [55]) of 2 µg/mL (≈ 4.94 µM) and an MIC (Mycobacterium avium [56]) of 2 µg/mL (≈ 4.94 µM). For the same compound, the MIC (Mycobacterium avium [57]) was 8 µg/mL (≈ 19.8 µM), the MIC (Mycobacterium avium [58]) was 1.56 µg/mL (≈ 3.86 µM) and the MIC (Mycobacterium avium [59]) was less than 0.195 µg/mL. The MIC (Mycobacterium avium [60]) was 0.39 µg/mL (≈ 0.964 µM), the MIC (Mycobacterium avium [61]) was less than 0.195 µg/mL and the MIC (Mycobacterium avium [62]) was 1.56 µg/mL (≈ 3.86 µM). For the same compound, the MIC (Mycobacterium avium [63]) was 3.12 µg/mL (≈ 7.72 µM), the MIC (Mycobacterium avium [64]) was 12.5 µg/mL (≈ 30.9 µM) and the MIC (Mycobacterium avium [65]) was less than 0.39 µg/mL. It also gave an MIC (Mycobacterium avium [66]) of 3.12 µg/mL (≈ 7.72 µM), an MIC [67] of less than 0.39 µg/mL and an MIC [68] of 6.25 µg/mL (≈ 15.4 µM).
